Experimental findings from US9320276B2, “N-hetarylmethyl pyrazolylcarboxamides” (BAYER INTELLECTUAL PROPERTY GMBH, priority 2010, dated 2016) are described below.

Assay [1] concerns Septoria tritici. Put plainly: in vivo preventive test on Septoria tritici (wheat). The settings on record: 500 ppm of active ingredient, evaluated 21 days after inoculation. Here is the method:
(§1) Solvent: 49 parts by weight of N,N-dimethylacetamide Emulsifier: 1 part by weight of alkylaryl polyglycol ether To produce a suitable preparation of active compound, 1 part by weight of active compound or active compound combination is mixed with the stated amounts of solvent and emulsifier, and the concentrate is diluted with water to the desired concentration. To test for preventive activity, young plants are sprayed with the preparation of active compound or active compound combination at the stated rate of application. After the spray coating has been dried, the plants are sprayed with a spore suspension of Septoria tritici. The plants remain for 48 hours in an incubation cabinet at approximately 20° C. and a relative atmospheric humidity of approximately 100% and afterwards for 60 hours at approximately 15° C. in a translucent incubation cabinet at a relative atmospheric humidity of approximately 100%. The plants are placed in the greenhouse at a temperature of approximately 15° C. and a relative atmospheric humidity of approximately 80%. The test is evaluated 21 days after the inoculation. 0% means an efficacy which corresponds to that of the untreated control, while an efficacy of 100% means that no disease is observed.

The subject of assay [2] is Blumeria graminis fsp. hordei. Put plainly: in vivo preventive test on Blumeria graminis (barley). Conditions: 500 ppm of active ingredient, evaluated 7 days after inoculation. Here is the method:
Solvent: 49 parts by weight of N,N-dimethylacetamide Emulsifier: 1 part by weight of alkylaryl polyglycol ether To produce a suitable preparation of active compound, 1 part by weight of active compound or active compound combination is mixed with the stated amounts of solvent and emulsifier, and the concentrate is diluted with water to the desired concentration. To test for preventive activity, young plants are sprayed with the preparation of active compound or active compound combination at the stated rate of application. After the spray coating has been dried, the plants are dusted with spores of Blumeria graminis fsp. hordei. The plants are placed in the greenhouse at a temperature of approximately 18° C. and a relative atmospheric humidity of approximately 80% to promote the development of mildew pustules. The test is evaluated 7 days after the inoculation. 0% means an efficacy which corresponds to that of the untreated control, while an efficacy of 100% means that no disease is observed.

For assay [3], the system named is Puccinia triticina. The assay is described as follows: in vivo protective test on Puccinia triticina (wheat). The settings on record: 500 ppm of active ingredient, preventive, evaluated 8 days after inoculation. As to the method:
as §1, with “Puccinia triticina.” for “Septoria tritici.”, “approximately” for “approximately 100% and afterwards for 60 hours at approximately 15° C. in a translucent incubation cabinet at a relative atmospheric humidity of approximately”, “20°” for “15°”, “8” for “21”

Assay [4] concerns Uromyces appendiculatus. The assay is described as follows: in vivo preventive test on Uromyces appendiculatus (beans). The settings on record: 100 ppm of active ingredient, evaluated 10 days after inoculation. As to the method:
Solvent: 24.5 parts by weight of acetone • 24.5 parts by weight of N,N-dimethylacetamide Emulsifier: 1 part by weight of alkylaryl polyglycol ether To produce a suitable preparation of active compound, 1 part by weight of active compound is mixed with the stated amounts of solvent and emulsifier, and the concentrate is diluted with water to the desired concentration. To test for preventive activity, young plants are sprayed with the preparation of active compound at the stated rate of application. After the spray coating has dried on, the plants are inoculated with an aqueous spore suspension of the causal agent of bean rust (Uromyces appendiculatus) and then remain for 1 day in an incubation cabinet at approximately 20° C. and a relative atmospheric humidity of 100%. The plants are then placed in a greenhouse at approximately 21° C. and a relative atmospheric humidity of approximately 90%. The test is evaluated 10 days after the inoculation. 0% means an efficacy which corresponds to that of the untreated control, while an efficacy of 100% means that no disease is observed.

The test system of assay [5] is Botrytis cinerea. The assay is described as follows: in vivo protective test on Botrytis cinerea (beans). Conditions: 100 ppm of active ingredient, preventive, lesion size 2 days after inoculation. As to the method:
Solvent: 24.5 parts by weight of acetone • 24.5 parts by weight of N,N-dimethylacetamide Emulsifier: 1 part by weight of alkylaryl polyglycol ether To produce a suitable preparation of active compound, 1 part by weight of active compound is mixed with the stated amounts of solvent and emulsifier, and the concentrate is diluted with water to the desired concentration. To test for preventive activity, young plants are sprayed with the preparation of active compound. After the spray coating has dried on, 2 small pieces of agar covered with growth of Botrytis cinerea are placed on each leaf. The inoculated plants are placed in a darkened chamber at 20° C. and a relative atmospheric humidity of 100%. 2 days after the inoculation, the size of the lesions on the leaves is evaluated. 0% means an efficacy which corresponds to that of the untreated control, while an efficacy of 100% means that no disease is observed.

As for `CC(c1cccc2ccsc12)N(C(=O)c1c(C(F)F)nn(C)c1F)C1CC1` (centres unmarked) [Example 91], the figures for the Efficacy in assay [1], in assay [2] and in assay [3] were 100%, 94% and 100%, respectively.

With `CC(C)c1nn(-c2ccccc2)c(Cl)c1CN(C(=O)c1c(C(F)F)nn(C)c1F)C1CC1` [Example 169], the Efficacy in assay [1], in assay [2], in assay [4], in assay [3] and in assay [5] was 100% throughout.

Turning to `CC(c1cc2ccccc2s1)N(C(=O)c1c(C(F)F)nn(C)c1F)C1CC1` (racemic) [Example 80], the Efficacy in assay [1] is on record as 100%; in assay [2] it was 86%; in assay [3], 100%; in assay [5], 100%.

`CC(c1cc2ccccc2o1)N(C(=O)c1c(C(F)F)nn(C)c1F)C1CC1` (racemic) [Example 70]: the Efficacy was 100% in assay [1], 80% in assay [2], 100% in assay [4] and 95% in assay [5].

As to `Cn1nc(C(F)F)c(C(=S)N(Cc2cccc3ccsc23)C2CC2)c1F` [Example 95], the Efficacy turned out to be 80% in assay [1], 100% in assay [2], 90% in assay [4] and 83% in assay [3].

`Cc1sc(-c2ccccc2)cc1C(C)N(C(=O)c1c(C(F)F)nn(C)c1F)C1CC1` (centres unmarked) [Example 147]: the Efficacy is given as 80% in assay [1], 70% in assay [2], 83% in assay [4] and 100% in assay [5].

On to `CC(c1cc(Cl)sc1Cl)N(C(=O)c1c(C(F)F)nn(C)c1F)C1CC1` (centres unmarked) [Example 128], for which the Efficacy in assay [1] was 90%; in assay [2], 100%; in assay [4], 100%; in assay [3], 100%; in assay [5], 100%.
